Assays:
[1] = tested on: cleaved caspase-6 (c1-C6) and caspase-9; test: Pen1-XBIR3 delivered to the striatum (CED/ICC) prior to tMCAo; immunostaining for c1-C6 and caspase-9; assay type: in vivo, rat; conditions: delivered to striatum 1 hr prior to tMCAo, 24 hpr
From the text: (Davidson, et al., J Neurosci 24 (45), 10040-10046 (2004)). Upon entry into the cell the disulfide linkage is broken by the reducing environment of the cytoplasm, releasing the peptide cargo and allowing it to act at its target. Functional efficacy of this construct was confirmed using hippocampal neuronal cultures that were subjected to 4-hydroxynonenal (HNE) mediated death, a caspase-9 dependent death. (Rabacchi, et al., Neurobiol Aging 25 (8), 1057-1066 (2004)). […] To ensure that a Pen1-peptide could be delivered to the brain, Pen1 was linked to a FITC-labeled control peptide and delivered to the striatum using convection enhanced delivery (CED). Brains were harvested 24 hr after delivery, sectioned, and imaged. […] Pent-XBIR3 was delivered to the striatum 1 hr prior to tMCAo using ICC. Animals were harvested at 24 hpr and immunostained for caspase-9 and c1-C6. […]
Pen1-XBIR3. […] Linkage was assessed by 20% SDS-PAGE and western blotting with anti-His antibody. […]
Immunohistochemistry (IHC), Cell Process Quantification, and Statistical Analysis. […] Quantification of neurons and axons was accomplished using the Cell Counter plug-in for ImageJ (NIH). For quantification in the rat brain, 20x magnification images were acquired from the dorsal motor cortex and the […] somatosensory cortex forelimb region; both regions are contained are within the infarct penumbra (FIG. 1A). […]

[2] = tested on: hippocampal neuronal cultures; test: Neuronal survival assay, 4-hydroxynonenal (HNE) mediated death; assay type: cell-based, rat; conditions: HNE 3 μM, Pen1-XBIR3 80 nM, 1 day
From the text: (Davidson, et al., J Neurosci 24 (45), 10040-10046 (2004)). Upon entry into the cell the disulfide linkage is broken by the reducing environment of the cytoplasm, releasing the peptide cargo and allowing it to act at its target. Functional efficacy of this construct was confirmed using hippocampal neuronal cultures that were subjected to 4-hydroxynonenal (HNE) mediated death, a caspase-9 dependent death. (Rabacchi, et al., Neurobiol Aging 25 (8), 1057-1066 (2004)). […] To ensure that a Pen1-peptide could be delivered to the brain, Pen1 was linked to a FITC-labeled control peptide and delivered to the striatum using convection enhanced delivery (CED). Brains were harvested 24 hr after delivery, sectioned, and imaged. […] Pent-XBIR3 was delivered to the striatum 1 hr prior to tMCAo using ICC. Animals were harvested at 24 hpr and immunostained for caspase-9 and c1-C6. […] Thus, caspase-9 activity was necessary for activation of caspase-6 in neuron soma and processes following a transient ischemic event in rats.
Rat Hippocampal cultures. […]
Neuronal survival assay. […] After 1 day of treatment cells number was quantified as previously described. […] Briefly, the cells were lysed in counting buffer and intact nuclei were counted using a hemocytometer. […]

Pen1-XBIR3: BIR3 domain from XIAP, a specific caspase-9 inhibitor, disulfide-linked to Penetratin1 cell transduction peptide (SEQ ID NO: 10)
caspase-9 and c1-C6 immunostaining in neuronal soma and processes [1]: blocks the increase in caspase-9 and the induction of c1-C6
caspase-9 and c1-C6 immunostaining in neuronal soma and processes ([1]; listed as Pent-XBIR3): inhibited appearance of c1-C6 and caspase-9
neuronal death / survival [2]: abrogated death
